Results published in patent US11020399B2, “Intermediates useful in the synthesis of compounds as modulators of protein kinases” (Rhizen Pharmaceuticals SA, priority 2011, dated 2021).
Where a name gives a salt, the structure may show the parent alone.

Assays:
[1] = molecular target: PI3kδ (Homo sapiens, UniProt O00329); experiment: Fluorescent (HTRF) determination of PI3 kinase enzyme activity, PI3Kδ; assay type: biochemical; details: for inhibition at 0.1 µM: 100 nM (Examples 60-137); for inhibition at 0.3 µM: 300 nM (Examples 1-59)
Chain of PI3kδ (O00329 whole entry, canonical isoform): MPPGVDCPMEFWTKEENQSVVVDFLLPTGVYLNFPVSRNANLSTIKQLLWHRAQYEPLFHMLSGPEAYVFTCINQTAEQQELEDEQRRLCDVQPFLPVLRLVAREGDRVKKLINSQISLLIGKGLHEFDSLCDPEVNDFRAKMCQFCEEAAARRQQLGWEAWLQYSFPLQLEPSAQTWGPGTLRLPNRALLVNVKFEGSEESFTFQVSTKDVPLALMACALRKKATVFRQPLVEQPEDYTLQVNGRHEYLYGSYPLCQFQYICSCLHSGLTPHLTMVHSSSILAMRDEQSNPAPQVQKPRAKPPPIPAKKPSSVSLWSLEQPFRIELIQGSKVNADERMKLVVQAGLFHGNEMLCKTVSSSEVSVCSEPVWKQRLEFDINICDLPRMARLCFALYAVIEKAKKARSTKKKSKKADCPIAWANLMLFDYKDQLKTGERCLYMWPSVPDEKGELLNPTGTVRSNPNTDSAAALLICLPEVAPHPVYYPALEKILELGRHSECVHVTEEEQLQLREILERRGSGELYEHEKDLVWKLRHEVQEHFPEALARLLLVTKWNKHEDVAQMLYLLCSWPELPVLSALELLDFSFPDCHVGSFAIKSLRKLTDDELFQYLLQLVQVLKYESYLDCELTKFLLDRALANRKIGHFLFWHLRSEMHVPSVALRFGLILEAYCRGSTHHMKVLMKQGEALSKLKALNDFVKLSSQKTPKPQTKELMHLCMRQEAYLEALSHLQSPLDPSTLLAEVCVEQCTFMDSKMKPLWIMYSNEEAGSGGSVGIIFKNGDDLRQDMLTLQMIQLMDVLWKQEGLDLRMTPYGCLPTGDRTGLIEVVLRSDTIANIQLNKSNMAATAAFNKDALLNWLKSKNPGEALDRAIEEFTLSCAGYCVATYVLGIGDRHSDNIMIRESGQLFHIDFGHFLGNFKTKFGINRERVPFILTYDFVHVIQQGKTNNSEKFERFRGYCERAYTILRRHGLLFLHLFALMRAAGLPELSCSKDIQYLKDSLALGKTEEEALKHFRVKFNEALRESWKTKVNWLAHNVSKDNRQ
Chain of PI3kδ (P27986 whole entry partner, canonical isoform): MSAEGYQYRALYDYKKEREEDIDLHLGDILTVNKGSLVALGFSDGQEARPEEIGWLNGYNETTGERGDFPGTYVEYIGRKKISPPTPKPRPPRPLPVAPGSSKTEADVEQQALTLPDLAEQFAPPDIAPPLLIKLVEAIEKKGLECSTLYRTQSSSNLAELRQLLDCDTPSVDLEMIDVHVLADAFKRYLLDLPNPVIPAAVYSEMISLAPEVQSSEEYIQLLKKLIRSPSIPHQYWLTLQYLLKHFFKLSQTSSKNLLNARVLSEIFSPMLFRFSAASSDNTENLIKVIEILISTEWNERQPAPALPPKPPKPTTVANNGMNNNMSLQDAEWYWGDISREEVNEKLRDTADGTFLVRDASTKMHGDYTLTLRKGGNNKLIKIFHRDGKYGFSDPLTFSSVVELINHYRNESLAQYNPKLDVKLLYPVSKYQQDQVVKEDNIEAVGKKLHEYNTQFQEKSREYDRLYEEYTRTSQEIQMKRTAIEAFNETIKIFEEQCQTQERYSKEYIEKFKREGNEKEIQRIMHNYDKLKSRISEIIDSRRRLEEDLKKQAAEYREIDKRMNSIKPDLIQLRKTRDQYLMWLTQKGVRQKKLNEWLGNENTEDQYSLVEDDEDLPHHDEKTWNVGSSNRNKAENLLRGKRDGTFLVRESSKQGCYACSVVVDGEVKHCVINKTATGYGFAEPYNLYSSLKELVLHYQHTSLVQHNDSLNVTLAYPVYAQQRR
Summary of the method: (§1)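 Human PI3K isoforms were preincubated with compound for 10 min at room temperature in 10 mM MgCl2, 5 mM DTT, 1.38 μM PIP2, then reacted 30 min after adding 400 μM ATP stock. PIP3 was read by HTRF (665/620 nm). Percent inhibition used blank and enzyme controls; single-point testing was at 1 uM for α/β and 0.3 or 0.1 uM for γ/δ.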

[2] = molecular target: PI3kγ (Homo sapiens, UniProt P48736); experiment: Fluorescent (HTRF) determination of PI3 kinase enzyme activity, PI3Kγ; assay type: biochemical; details: for inhibition at 0.1 µM: 100 nM (Examples 60-137); for inhibition at 0.3 µM: 300 nM (Examples 1-59)
Chain of PI3kγ (P48736 whole entry): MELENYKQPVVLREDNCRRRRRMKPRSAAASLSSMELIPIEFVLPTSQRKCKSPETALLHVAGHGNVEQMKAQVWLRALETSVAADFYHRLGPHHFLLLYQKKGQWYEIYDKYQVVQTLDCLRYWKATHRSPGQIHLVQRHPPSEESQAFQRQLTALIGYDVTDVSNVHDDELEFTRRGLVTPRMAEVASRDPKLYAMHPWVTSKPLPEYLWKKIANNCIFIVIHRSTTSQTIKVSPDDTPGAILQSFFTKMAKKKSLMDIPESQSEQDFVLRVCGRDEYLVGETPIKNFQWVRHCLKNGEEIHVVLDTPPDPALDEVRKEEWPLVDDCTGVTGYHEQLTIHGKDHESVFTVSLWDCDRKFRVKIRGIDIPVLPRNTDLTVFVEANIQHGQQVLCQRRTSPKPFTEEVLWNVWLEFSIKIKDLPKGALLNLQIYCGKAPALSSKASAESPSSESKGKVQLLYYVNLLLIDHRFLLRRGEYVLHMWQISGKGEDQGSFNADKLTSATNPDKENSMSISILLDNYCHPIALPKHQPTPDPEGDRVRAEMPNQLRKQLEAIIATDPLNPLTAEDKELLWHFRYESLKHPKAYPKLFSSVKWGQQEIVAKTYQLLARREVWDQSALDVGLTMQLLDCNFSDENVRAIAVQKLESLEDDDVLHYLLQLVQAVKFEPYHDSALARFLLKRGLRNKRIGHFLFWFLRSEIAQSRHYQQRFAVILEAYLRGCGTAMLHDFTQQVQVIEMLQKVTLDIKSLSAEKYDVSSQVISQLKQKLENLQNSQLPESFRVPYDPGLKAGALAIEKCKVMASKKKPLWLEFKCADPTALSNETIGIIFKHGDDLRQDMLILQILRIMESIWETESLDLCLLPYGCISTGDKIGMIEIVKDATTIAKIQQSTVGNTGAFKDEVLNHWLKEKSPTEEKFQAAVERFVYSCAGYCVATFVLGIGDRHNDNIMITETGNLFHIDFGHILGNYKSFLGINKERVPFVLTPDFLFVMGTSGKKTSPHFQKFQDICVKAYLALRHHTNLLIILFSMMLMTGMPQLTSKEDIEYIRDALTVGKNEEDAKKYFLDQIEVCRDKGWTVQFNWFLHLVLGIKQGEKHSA
Summary of the method: as §1

[3] = molecular target: PI3kα (Homo sapiens, UniProt P42336); experiment: Fluorescent (HTRF) determination of PI3 kinase enzyme activity, PI3Kα; assay type: biochemical; details: 1 uM
Chain of PI3kα (P42336 whole entry): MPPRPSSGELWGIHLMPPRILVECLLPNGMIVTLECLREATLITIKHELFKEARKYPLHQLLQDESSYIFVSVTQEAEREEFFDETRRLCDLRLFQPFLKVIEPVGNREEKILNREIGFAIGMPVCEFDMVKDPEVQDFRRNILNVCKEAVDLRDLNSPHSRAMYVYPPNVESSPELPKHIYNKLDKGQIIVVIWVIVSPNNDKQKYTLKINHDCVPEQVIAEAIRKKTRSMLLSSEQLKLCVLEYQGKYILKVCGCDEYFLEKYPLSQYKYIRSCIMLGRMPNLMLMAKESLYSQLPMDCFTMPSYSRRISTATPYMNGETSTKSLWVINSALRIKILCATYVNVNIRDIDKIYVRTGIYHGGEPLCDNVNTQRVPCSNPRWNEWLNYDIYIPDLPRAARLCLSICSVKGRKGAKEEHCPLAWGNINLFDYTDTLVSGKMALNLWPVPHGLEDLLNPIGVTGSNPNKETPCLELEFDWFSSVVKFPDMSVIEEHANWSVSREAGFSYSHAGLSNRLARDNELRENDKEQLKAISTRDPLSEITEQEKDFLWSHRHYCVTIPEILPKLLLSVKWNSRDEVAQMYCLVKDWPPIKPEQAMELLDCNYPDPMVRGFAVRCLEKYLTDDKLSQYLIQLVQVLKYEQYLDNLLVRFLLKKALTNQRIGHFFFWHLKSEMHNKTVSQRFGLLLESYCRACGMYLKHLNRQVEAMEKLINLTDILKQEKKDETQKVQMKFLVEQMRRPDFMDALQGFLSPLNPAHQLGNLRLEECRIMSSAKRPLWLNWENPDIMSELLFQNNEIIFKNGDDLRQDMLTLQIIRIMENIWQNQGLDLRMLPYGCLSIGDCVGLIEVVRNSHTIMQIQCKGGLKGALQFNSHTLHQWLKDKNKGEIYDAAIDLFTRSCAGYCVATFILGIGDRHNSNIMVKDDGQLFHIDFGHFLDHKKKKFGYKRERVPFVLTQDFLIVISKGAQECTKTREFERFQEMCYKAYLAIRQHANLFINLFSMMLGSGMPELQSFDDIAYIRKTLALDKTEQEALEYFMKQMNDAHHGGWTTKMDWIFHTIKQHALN
Chain of PI3kα (P27986 whole entry partner): as the sequence (P27986 whole entry partner, canonical isoform) above
Summary of the method: as §1

[4] = molecular target: PI3kβ (Homo sapiens, UniProt P42338); experiment: Fluorescent (HTRF) determination of PI3 kinase enzyme activity, PI3Kβ; assay type: biochemical; details: 1 uM
Chain of PI3kβ (P42338 whole entry): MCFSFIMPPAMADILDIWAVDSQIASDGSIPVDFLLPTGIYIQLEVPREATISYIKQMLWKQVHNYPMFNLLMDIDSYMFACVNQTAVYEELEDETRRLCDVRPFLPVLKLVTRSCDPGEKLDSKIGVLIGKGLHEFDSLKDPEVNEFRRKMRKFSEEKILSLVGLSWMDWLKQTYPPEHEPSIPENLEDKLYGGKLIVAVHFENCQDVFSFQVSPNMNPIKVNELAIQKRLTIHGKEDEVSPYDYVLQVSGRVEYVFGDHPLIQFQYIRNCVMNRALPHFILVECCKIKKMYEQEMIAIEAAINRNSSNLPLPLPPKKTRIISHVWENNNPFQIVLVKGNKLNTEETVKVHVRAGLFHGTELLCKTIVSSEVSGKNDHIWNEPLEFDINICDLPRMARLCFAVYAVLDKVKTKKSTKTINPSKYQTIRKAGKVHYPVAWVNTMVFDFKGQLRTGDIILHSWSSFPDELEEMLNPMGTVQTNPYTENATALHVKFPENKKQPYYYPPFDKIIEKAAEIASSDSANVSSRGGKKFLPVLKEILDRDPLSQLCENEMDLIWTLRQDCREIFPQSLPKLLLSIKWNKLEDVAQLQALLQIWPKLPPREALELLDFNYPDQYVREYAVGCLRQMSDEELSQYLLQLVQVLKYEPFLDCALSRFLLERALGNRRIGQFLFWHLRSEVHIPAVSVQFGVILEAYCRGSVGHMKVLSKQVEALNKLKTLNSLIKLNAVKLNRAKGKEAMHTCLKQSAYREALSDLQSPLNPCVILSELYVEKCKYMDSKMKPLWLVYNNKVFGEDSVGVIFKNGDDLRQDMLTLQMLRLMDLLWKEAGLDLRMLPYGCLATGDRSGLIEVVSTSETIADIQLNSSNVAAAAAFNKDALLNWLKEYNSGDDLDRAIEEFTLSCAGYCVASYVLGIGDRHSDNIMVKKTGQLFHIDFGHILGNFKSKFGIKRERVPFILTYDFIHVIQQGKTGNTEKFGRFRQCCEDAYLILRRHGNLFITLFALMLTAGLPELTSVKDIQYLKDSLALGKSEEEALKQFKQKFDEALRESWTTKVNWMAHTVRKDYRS
Chain of PI3kβ (P27986 whole entry partner): as the sequence (P27986 whole entry partner, canonical isoform) above
Summary of the method: as §1

melting point [°C] | inhibition at 1 µM [3] [%] | inhibition at 0.3 µM [1] [%] | inhibition at 1 µM [4] [%] | inhibition at 0.3 µM [2] [%] | Compound | also measured
207 to 209 | – | – | – | – | CNc1ncnc2c1ncn2C(C)c1oc2cccc(F)c2c(=O)c1-c1cccc(F)c1 (stereo not shown) (as salt: potassium) [Example 111, 5-fluoro-3-(3-fluorophenyl)-2-(1-(6-(methylamino)-9H-purin-9-yl)ethyl)-4H-chromen-4-one] | –
225 to 227 | – | – | – | – | CCOc1ccc(-c2nn(C(C)c3oc4cccc(F)c4c(=O)c3-c3cccc(F)c3)c3ncnc(N)c23)cc1C(F)(F)F (stereo not shown) [Example 132, 2-(1-(4-amino-3-(4-ethoxy-3-(trifluoromethyl)phenyl)-1H-pyrazolo[3,4-d]pyrimidin-1-yl)ethyl)-5-fluoro-3-(3-fluorophenyl)-4H-chromen-4-one] | inhibition at 0.1 µM [1]: 50 to 75%; inhibition at 0.1 µM [2]: 25 to 50%
185 to 188 | – | – | – | – | Cc1cc(-c2nn(C(C)c3oc4cccc(F)c4c(=O)c3-c3cccc(F)c3)c3ncnc(N)c23)ccc1OC(C)C (stereo not shown) (as salt: sodium) [Example 50, 2-(1-(4-amino-3-(4-isopropoxy-3-methylphenyl)-1H-pyrazolo[3,4-d]pyrimidin-1-yl)ethyl)-5-fluoro-3-(3-fluorophenyl)-4H-chromen-4-one] | –
198 to 201 | – | – | – | – | C[C@H](c1oc2cccc(F)c2c(=O)c1-c1cccc(F)c1)n1ncc2c(N)ncnc21 [Example 16b, (−)-2-(1-(4-amino-1H-pyrazolo[3,4-d]pyrimidin-1-yl)ethyl)-5-fluoro-3-(3-fluorophenyl)-4H-chromen-4-one] | –
– | 0 to 25 | 25 to 50 | 25 to 50 | 50 to 75 | CC(c1oc2cccc(F)c2c(=O)c1-c1cccc(F)c1)n1nc(-c2ccc(N3CCN(C)CC3)c(F)c2)c2c(N)ncnc21 (stereo not shown) [Example 27, 2-(1-(4-amino-3-(3-fluoro-4-(4-methylpiperazin-1-yl)phenyl)-1H-pyrazolo[3,4-d]pyrimidin-1-yl)ethyl)-5-fluoro-3-(3-fluorophenyl)-4H-chromen-4-one] | –
239 to 241 | – | – | – | – | CC(c1oc2cccc(F)c2c(=O)c1-c1cccc(F)c1)n1cnc2c(N3CCOCC3)ncnc21 (stereo not shown) (as salt: potassium) [Example 119, 5-fluoro-3-(3-fluorophenyl)-2-(1-(6-morpholino-9H-purin-9-yl)ethyl)-4H-chromen-4-one] | –
– | 50 to 75 | 50 to 75 | 50 to 75 | 25 to 50 | CC(c1oc2cccc(F)c2c(=O)c1-c1cccc(F)c1)n1cnc2c(N)ncnc21 (stereo not shown) [Example 11, 2-(1-(6-amino-9H-purin-9-yl)ethyl)-5-fluoro-3-(3-fluorophenyl)-4H-chromen-4-one] | –
– | 25 to 50 | 75 to 100 | 0 to 25 | 25 to 50 | CC(c1oc2cccc(F)c2c(=O)c1-c1cccc(F)c1)n1nc(-c2ccc(NCCO)c(F)c2)c2c(N)ncnc21 (stereo not shown) [Example 22, 2-(1-(4-amino-3-(3-fluoro-4-(2-hydroxyethylamino)phenyl)-1H-pyrazolo[3,4-d]pyrimidin-1-yl)ethyl)-5-fluoro-3-(3-fluorophenyl)-4H-chromen-4-one] | –
– | – | 75 to 100 | – | 50 to 75 | CC(C)Oc1ccc(-c2nn(C(C)c3oc4cccc(F)c4c(=O)c3-c3ccccc3)c3ncnc(N)c23)cc1F (stereo not shown) [Example 13, 2-(1-(4-amino-3-(3-fluoro-4-isopropoxyphenyl)-1H-pyrazolo[3,4-d]pyrimidin-1-yl)ethyl)-5-fluoro-3-phenyl-4H-chromen-4-one] | % inhibition (PI3kα) 1 uM [3]: D (D=0 to 25%); IC50 [1]: ≤ 50 nM; % inhibition (PI3kβ) 1 uM [4]: D (D=0 to 25%)
255 to 258 | – | – | – | – | CC(c1oc2cccc(F)c2c(=O)c1-c1cccc(F)c1)n1cnc2c(N)nc(F)nc21 (stereo not shown) (as salt: potassium) [Example 106, 2-(1-(6-amino-2-fluoro-9H-purin-9-yl)ethyl)-5-fluoro-3-(3-fluorophenyl)-4H-chromen-4-one] | –
– | 0 to 25 | 75 to 100 | 25 to 50 | 75 to 100 | CC(C)Nc1ccc(-c2nn(C(C)c3oc4cccc(F)c4c(=O)c3-c3cccc(F)c3)c3ncnc(N)c23)cc1F (stereo not shown) [Example 23, 2-(1-(4-amino-3-(3-fluoro-4-(isopropylamino)phenyl)-1H-pyrazolo[3,4-d]pyrimidin-1-yl)ethyl)-5-fluoro-3-(3-fluorophenyl)-4H-chromen-4-one] | IC50 [1]: 50 to 100 nM; IC50 [2]: ≤ 50 nM
275 to 277 | – | – | – | – | Cc1ccccc1-c1c(C(C)Nc2ncnc3[nH]cnc23)oc2cccc(F)c2c1=O (stereo not shown) [Example 138, 2-(1-(9H-purin-6-ylamino)ethyl)-5-fluoro-3-o-tolyl-4H-chromen-4-one] | –
– | 25 to 50 | – | 0 to 25 | – | CC(=O)c1ccc(-c2nn(C(C)c3oc4cccc(F)c4c(=O)c3-c3cccc(F)c3)c3ncnc(N)c23)cc1F (stereo not shown) [Example 124, 2-(1-(3-(4-acetyl-3-fluorophenyl)-4-amino-1H-pyrazolo[3,4-d]pyrimidin-1-yl)ethyl)-5-fluoro-3-(3-fluorophenyl)-4H-chromen-4-one] | inhibition at 0.1 µM [1]: 25 to 50%; inhibition at 0.1 µM [2]: 0 to 25%
– | – | 75 to 100 | – | 50 to 75 | Cc1cc(-c2nn(C(C)c3oc4cccc(F)c4c(=O)c3-c3cccc(F)c3)c3ncnc(N)c23)ccc1OC(C)C (stereo not shown) [Example 50, 2-(1-(4-amino-3-(4-isopropoxy-3-methylphenyl)-1H-pyrazolo[3,4-d]pyrimidin-1-yl)ethyl)-5-fluoro-3-(3-fluorophenyl)-4H-chromen-4-one] | % inhibition (PI3kα) 1 uM [3]: D (D=0 to 25%); % inhibition (PI3kβ) 1 uM [4]: C (C=>25 to 50%)
– | 25 to 50 | 75 to 100 | 0 to 25 | 0 to 25 | CC(c1oc2cccc(F)c2c(=O)c1-c1cccc(F)c1)n1ncc2c(N)ncnc21 (stereo not shown) [Example 16, 2-(1-(4-amino-1H-pyrazolo[3,4-d]pyrimidin-1-yl)ethyl)-5-fluoro-3-(3-fluorophenyl)-4H-chromen-4-one] | IC50 [1]: 50 to 100 nM
– | 0 to 25 | 0 to 25 | 25 to 50 | 50 to 75 | CC(c1oc2cccc(F)c2c(=O)c1-c1cccc(F)c1)n1nc(N2CCOCC2)c2c(N)ncnc21 (stereo not shown) [Example 37, 2-(1-(4-amino-3-morpholino-1H-pyrazolo[3,4-d]pyrimidin-1-yl)ethyl)-5-fluoro-3-(3-fluorophenyl)-4H-chromen-4-one] | –
– | 0 to 25 | – | 25 to 50 | – | Cc1n[nH]c2cc(-c3nn([C@@H](C)c4oc5cccc(F)c5c(=O)c4-c4cccc(F)c4)c4ncnc(N)c34)ccc12 [Example 9a, (+)-2-(1-(4-amino-3-(3-methyl-1H-indazol-6-yl)-1H-pyrazolo[3,4-d]pyrimidin-1-yl)ethyl)-5-fluoro-3-(3-fluorophenyl)-4H-chromen-4-one] | IC50 [1]: ≤ 50 nM; IC50 [2]: ≤ 50 nM
– | 25 to 50 | 25 to 50 | 0 to 25 | 75 to 100 | CC(c1oc2cccc(F)c2c(=O)c1-c1cccc(F)c1)n1nc(-c2cn[nH]c2)c2c(N)ncnc21 (stereo not shown) [Example 10, 2-(1-(4-amino-3-(1H-pyrazol-4-yl)-1H-pyrazolo[3,4-d]pyrimidin-1-yl)ethyl)-5-fluoro-3-(3-fluorophenyl)-4H-chromen-4-one] | IC50 [2]: 100 to 300 nM
– | 0 to 25 | 25 to 50 | 25 to 50 | 50 to 75 | CC(c1oc2cccc(F)c2c(=O)c1-c1ccccc1)n1ncc2c(N)ncnc21 (stereo not shown) [Example 29, 2-(1-(4-amino-1H-pyrazolo[3,4-d]pyrimidin-1-yl)ethyl)-5-fluoro-3-phenyl-4H-chromen-4-one] | –
– | 25 to 50 | 50 to 75 | 25 to 50 | 50 to 75 | CC(c1oc2cccc(F)c2c(=O)c1-c1ccc(F)cc1)n1nc(-c2ccc(OC(F)F)c(F)c2)c2c(N)ncnc21 (stereo not shown) [Example 31, 2-(1-(4-amino-3-(4-(difluoromethoxy)-3-fluorophenyl)-1H-pyrazolo[3,4-d]pyrimidin-1-yl)ethyl)-5-fluoro-3-(4-fluorophenyl)-4H-chromen-4-one] | –
– | 25 to 50 | 50 to 75 | 50 to 75 | 0 to 25 | CC(C)Oc1ccc(-c2nn(C(C)c3oc4cccc(F)c4c(=O)c3-c3cccc(F)c3)c3ncnc(N)c23)cn1 (stereo not shown) [Example 40, 2-(1-(4-amino-3-(6-isopropoxypyridin-3-yl)-1H-pyrazolo[3,4-d]pyrimidin-1-yl)ethyl)-5-fluoro-3-(3-fluorophenyl)-4H-chromen-4-one] | –
– | – | 25 to 50 | – | 75 to 100 | CC(C)Oc1ccc(-c2nn(C(C)c3oc4cccc(F)c4c(=O)c3-c3ccc(F)cc3)c3ncnc(N)c23)cc1F (stereo not shown) [Example 12, 2-(1-(4-amino-3-(3-fluoro-4-isopropoxyphenyl)-1H-pyrazolo[3,4-d]pyrimidin-1-yl)ethyl)-5-fluoro-3-(4-fluorophenyl)-4H-chromen-4-one] | % inhibition (PI3kα) 1 uM [3]: D (D=0 to 25%); % inhibition (PI3kβ) 1 uM [4]: C (C=>25 to 50%); IC50 [2]: 100 to 300 nM
– | 25 to 50 | – | 0 to 25 | – | CC(c1oc2cccc(F)c2c(=O)c1-c1ccc(F)cc1)n1cnc2c(N3CCOCC3)ncnc21 (stereo not shown) [Example 108, 5-fluoro-3-(4-fluorophenyl)-2-(1-(6-morpholino-9H-purin-9-yl)ethyl)-4H-chromen-4-one] | inhibition at 0.1 µM [1]: 25 to 50%; inhibition at 0.1 µM [2]: 25 to 50%
